Test results: patent publication US20260240843A1, “PHARMACEUTICAL COMPOSITION AND USE THEREOF” (priority 2023, published 2026)
Structures can show the parent of a compound that is named as a salt. Where two headings read alike, the source gives them in different places.

How the values were obtained:
[1] = tested on: human ovarian cancer OVCAR3 cell xenograft tumor; conditions: doxorubicin hydrochloride 3 mg/kg i.v. qw x 4 w; for tumor growth inhibition (in words): (I-1) 100 mg/kg p.o. qd x 28 d; for RTV on day 29 after administration (mean value ± standard error) / T/C (%) on day 29 after administration: day 29, (I-1) 100 mg/kg p.o. qd x 28 d
Source text: A total of 71 immunodeficient mice were subcutaneously injected with 10×10^6 OVCAR3 cells to establish a xenograft tumor model. Tumor-bearing mice with uniform tumors were randomly grouped into different treatment groups based on tumor volume, with 7 mice in each group.
Tumor cells: OVCAR3; 10×10^6 cells+Matrigel gel/mouse. A total of 71 mice were inoculated. 28 tumor-bearing mice with relatively uniform tumors were selected and randomly divided into 4 experimental groups, with 7 mice per group.
(§1) Under sterile conditions, a xenograft tumor model was established by subcutaneous injection of tumor cells into the right dorsal side of immunodeficient mice. When the tumor reached an appropriate size (100 mm^3 to 200 mm^3), the animals were randomly grouped by randomized block method based on the tumor volume of the animals, the tumor volume difference of each group should be less than 20% of the mean value, with 6 to 7 animals in each group, and administration was started on the day of grouping (i.e., d1). The body weight and tumor size of the animals were measured twice a week during the experiment. The clinical symptoms were observed and recorded daily. At the end of administration or at the end of the experiment.
(§2) The tumor volume (TV) was calculated as follows: TV=a×b^2/2, where a and b represent the measured length and width of the tumor, respectively.
(§3) The relative tumor volume (RTV) was calculated as follows: RTV=Vt/V1, where V1 represents the tumor volume at the time of grouping and administration (day 1), and Vt represents the tumor volume at the time of measurement.
(§4) The synergy score was calculated using the following formula (Clarke R, 1997):
(§5) [formula] • where A represents response to drug A; B represents response to drug B; C represents response to vehicle control; AB represents response to combination treatment with A and B.
(§6) The antitumor growth curves of the test substances were plotted by taking the X-axis as the treatment time (day) and the corresponding tumor volume (mean value) as the Y-axis. […] All data were statistically analyzed using SPSS (Statistical Product and Service Solutions) software (version 18.0, IBM, Armonk, NY, U.S.). Graphing was performed using Prism version 6 (GraphPad Software Inc., San Diego, CA).
(§7) For combination treatment, a synergy score of <1 indicated antagonistic effect, a synergy score of =1 indicated additive effect, and a synergy score of >1 indicated synergistic effect.

[2] = tested on: human ovarian cancer OVCAR3 cell xenograft tumor; conditions: PLD 3 mg/kg i.v. qw x 3 w; for tumor growth inhibition (in words): (I-1) 100 mg/kg p.o. qd x 21 d
Source text: A total of 56 immunodeficient mice were subcutaneously injected with 10×10^6 OVCAR3 cells to establish a xenograft tumor model. Tumor-bearing mice with uniform tumors were randomly grouped into different treatment groups based on tumor volume, with 6 mice in each group.
Tumor cells: OVCAR3; 10×10^6 cells+Matrigel gel/mouse. A total of 56 mice were inoculated. 24 tumor-bearing mice with relatively uniform tumors were selected and randomly divided into 4 experimental groups, with 6 mice in each group.
as §1, §2, §3, §4, §5, §6, §7

[3] = tested on: mouse ovarian cancer ID8 cells; assay: Murine ovarian cancer ID8 cell intraperitoneal model, combination with PLD; type: in vivo, mouse (C57BL/6)
Experimental: A total of 90 C57BL/6 mice were intraperitoneally injected with 15×10^6 ID8 cells to establish an ovarian cancer intraperitoneal model.
The body weight and tumor volume of the animals were measured twice or thrice a week during the experiment. The clinical symptoms were observed and recorded daily. After the administration was completed, the abdominal girth, body weight, and survival time of the mice were continuously observed until all the animals were subjected to euthanasia.
The tumor volume (TV) was measured using an IVIS imaging system, and the total luminescence value (Total flux) of each mouse was calculated under the same measurement area.
The animals were euthanized according to animal welfare principles when the body weight loss of the animals exceeded 20%, disease progression or moribund state was observed, the tumor burden exceeded 10% of the animal's body weight, the abdominal girth exceeded 100 mm, or the body weight exceeded 30 g.
Graphing was performed using Prism version 9 (GraphPad Software Inc., San Diego, CA), and the survival time and ascites production time were analyzed using the log-rank test.

[4] = day 22, (I-1) 100 mg/kg p.o. qd x 21 d

## Cc1cc(Nc2ncc(Cl)c(Nc3ccccc3S(=O)(=O)C(C)C)n2)c(OC(C)C)cc1C1=CCN(C2CCOCC2)CC1 [Compound represented by formula (I-1)]
[1]
  tumor growth inhibition (in words): moderate tumor growth inhibition
  RTV on day 29 after administration (mean value ± standard error): 7.95 ± 1.31
  T/C (%) on day 29 after administration: 63.15%
[2]
  tumor growth inhibition (in words): moderate tumor growth inhibition
[2]; [4]
  RTV on day 22 after administration (mean value ± standard error): 7.42 ± 1.06
  T/C (%) on day 22 after administration: 72.77%
[3]; compared with the solvent control group (combination also vs. monotherapy groups)
  survival time of the mice (in words): prolonged
[3]; day 22, (I-1) 100 mg/kg p.o. qd x 21 d, PLD 3 mg/kg i.v. qw x 3 w
  T/C on day 22: 37.49%
[3]; day 36, (I-1) 100 mg/kg p.o. qd x 21 d, PLD 3 mg/kg i.v. qw x 3 w
  T/C (%) on day 36 after administration: 97.13%
[3]; day 36, in vivo imaging (Total flux), (I-1) 100 mg/kg p.o. qd x 21 d, PLD 3 mg/kg i.v. qw x 3 w
  RTV on day 36 after administration (mean value ± standard error): 4.72 ± 1.35

## COc1cccc2c1C(=O)c1c(O)c3c(c(O)c1C2=O)C[C@@](O)(C(=O)CO)C[C@@H]3O[C@H]1C[C@H](N)[C@H](O)[C@H](C)O1 [Doxorubicin hydrochloride, reference compound]
[1]
  tumor growth inhibition (in words): moderate tumor growth inhibition
  RTV on day 29 after administration (mean value ± standard error): 8.88 ± 1.19
  T/C (%) on day 29 after administration: 70.50%
[2]
  tumor growth inhibition (in words): moderate tumor growth inhibition
